Laboratory results published in patent US8916599B2, “1H-benz imidazole-5-carboxamides as anti-inflammatory agents” (Orexo AB, priority 2008, dated 2014).

Key:
[1] = target: T1, recombinant human mPGES-1 (Homo sapiens, UniProt O14684); assay: mPGES-1 inhibition test (microsomes, PGH2 substrate, HTRF detection of PGE2); assay type: biochemical; details: for inhibition at 10 µM: inhibition of mPGES-1 at 10 μM; for inhibition at 1 µM: inhibition of mPGES-1 at 1 μM (marked in cell)
T1 construct: made in house; host or cells: Rosetta E. coli (microsomal/membrane fraction)
T1 sequence (O14684 1-152): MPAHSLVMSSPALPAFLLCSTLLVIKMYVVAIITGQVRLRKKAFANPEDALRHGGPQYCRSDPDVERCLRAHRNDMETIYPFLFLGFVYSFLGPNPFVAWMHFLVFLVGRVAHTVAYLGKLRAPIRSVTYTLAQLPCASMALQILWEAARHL
Outline: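 Microsomes from E. coli Rosetta expressing the enzyme, in 0.1 M KPi pH 7.4 with 2.5 mM GSH, were preincubated 25 min at room temperature with inhibitor in DMSO. PGH2 was added, the reaction stopped after one minute with acidified FeCl2, and PGE2 quantified by HTRF after 750-fold dilution.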

Compound | melting point [°C] | inhibition at 10 µM [1] [%] | inhibition at 1 µM [1] [%]
COCCOc1cccc(NC(=O)c2ccc3c(c2)nc(Nc2c(Cl)cccc2Cl)n3C)n1 [Example 302, 2-(2,6-Dichloro-phenylamino)-1-methyl-1H-benzimidazole-5-carboxylic acid [6-(2-methoxy-ethoxy)-pyridin-2-yl]-amide] | 185 to 187 | 86 | 
Cn1c(Nc2c(Cl)cccc2Cl)nc2cc(C(=O)Nc3cccc(Cl)c3)ccc21 [Example 297, 2-(2,6-Dichloro-phenylamino)-1-methyl-1H-benzimidazole-5-carboxylic acid (3-chloro-phenyl)-amide] | 175 to 176 | 97 | 
Cc1ccnc(NC(=O)c2ccc3c(c2)nc(Nc2c(Cl)cccc2Cl)n3C)c1 [Example 335, 2-(2,6-Dichloro-phenylamino)-1-methyl-1H-benzimidazole-5-carboxylic acid (4-methyl-pyridin-2-yl)-amide] | 157 to 159 | 95 | 
Cn1c(Nc2c(Cl)cccc2Cl)nc2cc(C(=O)Nc3ccc(C#N)cn3)ccc21 [Example 544, N-(5-Cyanopyridin-2-yl)-2-(2,6-dichlorophenylamino)-1-methyl-1H-benzimidazole-5-carboxamide] | 234 to 236 | 91 | 
Cn1c(Nc2c(Cl)cccc2Cl)nc2cc(C(=O)NC3(C#N)CCCCC3)ccc21 [Example 257, 2-(2,6-Dichloro-phenylamino)-1-methyl-1H-benzimidazole-5-carboxylic acid (1-cyano-cyclohexyl)-amide] |  | 100 | 
Cn1c(Nc2c(Cl)cccc2Cl)nc2cc(C(=O)Nc3cccc(Cl)c3)cc(Br)c21 [Example 405, 7-Bromo-N-(3-chlorophenyl)-2-(2,6-dichlorophenylamino)-1-methyl-1H-benzimidazole-5-carboxamide] |  | 100 | 
CN(C)C(=O)c1ccc(Nc2nc3cc(C(=O)Nc4ccc(Br)cc4)ccc3n2C)c(Cl)c1 [Example 562, N-(4-Bromophenyl)-2-(2-chloro-4-(dimethylcarbamoyl)-phenylamino)-1-methyl-1H-benzimidazole-5-carboxamide] |  | 97 | 
COc1cc2c(cc1C(=O)NCc1ncccc1C)nc(Nc1c(Cl)cccc1Cl)n2C [Example 465, 2-(2,6-Dichlorophenylamino)-6-methoxy-1-methyl-N-((3-methylpyridin-2-yl)methyl)-1H-benzimidazole-5-carboxamide] |  | 100 | 
Cn1c(Nc2c(Cl)cccc2Cl)nc2cc(C(=O)Nc3cccc(S(C)(=O)=O)c3)ccc21 [Example 248, 2-(2,6-Dichloro-phenylamino)-1-methyl-1H-benzimidazole-5-carboxylic acid (3-methanesulfonyl-phenyl)-amide] |  | 73 | 
O=C(Nc1cc(Cl)ccn1)c1ccc2c(c1)nc(Nc1c(Cl)cccc1Cl)n2CCO [Example 271, 2-(2,6-Dichloro-phenylamino)-1-(2-hydroxy-ethyl)-1H-benzimidazole-5-carboxylic acid (4-chloro-pyridin-2-yl)-amide] |  | 98 | 
COc1cc2c(cc1C(=O)Nc1ccc(Br)cc1)nc(Nc1cc(C)ccc1C(F)(F)F)n2C [Example 641, 2-(5-Methyl-2-trifluoromethyl-phenylamino)-N-(4-bromphenyl)-6-methoxy-1-methyl-1H-benzimidazol-5-carboxamide] |  |  | 97
Cn1c(Nc2c(Cl)cccc2Cl)nc2cc(C(=O)Nc3ccc(Cl)cn3)ccc21 [Example 494, N-(5-Chloropyridin-2-yl)-2-(2,6-dichlorophenylamino)-1-methyl-1H-benzimidazole-5-carboxamide] |  | 99 | 
Cn1c(Nc2c(Cl)cc(F)cc2Cl)nc2cc(C(=O)N[C@H]3CC[C@H](C(F)(F)F)CC3)ccc21 [Example 432, 2-(2,6-Dichloro-4-fluorophenylamino)-1-methyl-N-((1R,4R)-4-trifluoromethyl-cyclohexyl)-1H-benzimidazole-5-carboxamide] |  | 100 | 
Cn1c(Nc2c(Cl)cccc2Cl)nc2cc(C(=O)Nc3cccc(Cl)n3)ccc21 [Example 347, 2-(2,6-Dichloro-phenylamino)-1-methyl-1H-benzimidazole-5-carboxylic acid (6-chloro-pyridin-2-yl)-amide] |  | 100 | 
Cc1ccc(Cl)c(Nc2nc3cc(C(=O)NC4CCCCC4)c(F)cc3n2C)c1F [Example 623, 2-(6-Chloro-2-fluoro-3-methyl-phenylamino)-6-fluoro-N-cyclohexyl-1-methyl-1H-benzimidazole-5-carboxamide] |  |  | 93

The next lines start with the values.

melting point [°C] | inhibition at 10 µM [1] [%] | inhibition at 1 µM [1] [%] | Compound
267 to 269 | 100 |  | Cc1c(Cl)cccc1NC(=O)c1ccc2[nH]c(Nc3c(Cl)cccc3Cl)nc2c1 [Example 280, 2-(2,6-Dichloro-phenylamino)-1H-benzimidazole-5-carboxylic acid (3-chloro-2-methyl-phenyl)-amide]
178 to 180 | 96 |  | Cc1ccc(Cl)cc1NC(=O)c1ccc2[nH]c(Nc3c(Cl)cccc3Cl)nc2c1 [Example 110, 2-(2,6-Dichloro-phenylamino)-1H-benzimidazole-5-carboxylic acid (5-chloro-2-methyl-phenyl)-amide]
176 to 178 | 99 |  | O=C(NCc1ccccc1C(F)(F)F)c1cc(Br)c2[nH]c(Nc3c(Cl)cccc3Cl)nc2c1 [Example 350, 7-Bromo-2-(2,6-dichloro-phenylamino)-1H-benzimidazole-5-carboxylic acid 2-trifluoromethyl-benzylamide]
241 to 243 | 82 |  | O=C(Nc1ccc(Br)cc1)c1ccc2[nH]c(Nc3ccccc3OC(F)(F)F)nc2c1 [Example 106, 2-(2-Trifluoromethoxy-phenylamino)-1H-benzimidazole-5-carboxylic acid (4-bromo-phenyl)-amide]
183 to 185 | 90 |  | O=C(Nc1ccc(Br)cn1)c1ccc2[nH]c(Nc3c(Cl)cccc3Cl)nc2c1 [Example 303, 2-(2,6-Dichloro-phenylamino)-1H-benzimidazole-5-carboxylic acid (5-bromo-pyridin-2-yl)-amide]
143 to 145 | 91 |  | O=C(Nc1ccccc1C(F)(F)F)c1ccc2[nH]c(Nc3c(Cl)cccc3Cl)nc2c1 [Example 113, 2-(2,6-Dichloro-phenylamino)-1H-benzimidazole-5-carboxylic acid (2-trifluoromethyl-phenyl)-amide]
301 to 303 | 100 |  | O=C(Nc1nc(C(F)(F)F)cs1)c1ccc2[nH]c(Nc3c(Cl)cccc3Cl)nc2c1 [Example 319, 2-(2,6-Dichloro-phenylamino)-1H-benzimidazole-5-carboxylic acid (4-trifluoro-methyl-thiazol-2-yl)-amide]
245 to 247 | 87 |  | O=C(Nc1ccccn1)c1ccc2[nH]c(Nc3c(Cl)cccc3Cl)nc2c1 [Example 293, 2-(2,6-Dichloro-phenylamino)-1H-benzimidazole-5-carboxylic acid pyridin-2-ylamide]
179 to 182 | 98 |  | O=C(Nc1cc(C(F)(F)F)ccn1)c1ccc2[nH]c(Nc3c(Cl)cccc3Cl)nc2c1 [Example 304, 2-(2,6-Dichloro-phenylamino)-1H-benzimidazole-5-carboxylic acid (4-trifluoromethyl-pyridin-2-yl)-amide]
 | 96 |  | O=C(Nc1ccc(I)cc1)c1cc2nc(Nc3c(Cl)cccc3Cl)[nH]c2cc1Cl [Example 57, 2-(2,6-Dichloro-phenylamino)-6-chloro-1H-benzimidazol-5-carboxylic acid (4-iodo-phenyl)-amide]
 | 96 |  | CC1CCC(NC(=O)c2ccc3[nH]c(Nc4c(Cl)cccc4Cl)nc3c2)CC1 (stereo not shown) [Example 215, 2-(2,6-Dichloro-phenylamino)-1H-benzimidazole-5-carboxylic acid (4-methyl-cyclohexyl)-amide]
 | 100 |  | O=C(Nc1cccc(F)c1)c1ccc2[nH]c(Nc3c(Cl)cccc3Cl)nc2c1 [Example 285, 2-(2,6-Dichloro-phenylamino)-1H-benzimidazole-5-carboxylic acid (3-fluoro-phenyl)-amide]
 | 99 |  | Cc1cc2[nH]c(Nc3c(Cl)cccc3Cl)nc2cc1C(=O)Nc1ccc(C(C)(C)C)cc1 [Example 122, 2-(2,6-Dichloro-phenylamino)-6-methyl-1H-benzimidazol-5-carboxylic acid (4-tert.-butyl-phenyl)-amide]
 | 100 |  | COc1cc2[nH]c(Nc3c(Cl)cccc3Cl)nc2cc1C(=O)Nc1ccc(Br)cc1 [Example 371, N-(4-Bromophenyl)-2-(2,6-dichlorophenylamino)-6-methoxy-1H-benzimidazole-5-carboxamide]
 | 95 |  | Cc1ccccc1NC(=O)c1ccc2[nH]c(Nc3c(Cl)cccc3Cl)nc2c1 [Example 3, 2-(2,6-Dichloro-phenylamino)-1H-benzimidazole-5-carboxylic acid o-tolylamide]
